Experimental findings from patent US5273986A, “Cycloalkylthiazoles” (Hoffmann-La Roche Inc., priority 1992, dated 1993) are described below.

This assay concerns LTD4-induced bronchoconstriction. Put plainly: Antagonism of LTD4-induced bronchoconstriction in guinea pigs. The format is in vivo, guinea pig (male, Hartley strain). The following applies: for ED50 / inhibition in vivo at 1 mg/kg: Cavia porcellus; for inhibition in vivo at 1 mg/kg: read-out: percent inhibition at 1 mg/kg p.o., LTD4-induced bronchoconstriction (ID50 not determined). Here is the method: Male guinea pigs (Hartley strain, Charles River) weighing 400-600 g were anesthetized with urethane (2 g/kg) intraperitoneally, and a polyethylene cannula was inserted into the jugular vein for intravenous drug administration. Tracheal pressure (cm of H2 O) was recorded from a Statham pressure transducer (P 32 AA). Propranolol was administered 5 minutes prior to challenge with LTD4. Two minutes later spontaneous breathing was arrested with succinylcholine chloride (1.2 mg/kg) administered intravenously, and the animals were ventilated with a Harvard (Model 680) small animal respirator set at 40 breaths/min and a 4.0 cc stroke volume. Control vehicle (DMSO) or test compound was administered through the cannula into the jugular vein 1 minute before the animals were challenged with a maximum constrictory dose of LTD4 ([…] I.V.) given intravenously. The change in tracheal pressure was averaged for control and drug-treated animals and percent inhibition was calculated. For determination of oral activity, animals were dosed with test compound or vehicle (PEG400) two hours prior to challenge with LTD4 ([…], i.v.).
The relative potency of test compounds administered by the intravenous and oral route was determined by administering increasing doses of test compound at a fixed pretreatment time. The median inhibitory dose (ID50 value) was determined by linear regression of log dose-responsecurves generated by at least 3 doses that caused statistically significant inhibition between 10 and 90%. The correlation coefficient for the regression line was always greater than 0.95. For determination of the time-course of inhibition for various compounds, the time between administration of compound and challenge with LTD4 was varied. Durations of action were defined as the time for inhibitory activity to decrease to 50%.

Where [1] appears, read: iv, 1 min, I.V., compound 1 minute before LTD4 challenge, read-out: ID50 I.V., LTD4-induced bronchoconstriction.
Where [2] appears, read: po, 2 h, p.o., 1 mg/kg, compound two hours prior to LTD4 challenge.
Setting [3] is: po, 2 h, p.o., compound two hours prior to LTD4 challenge, read-out: ID50 p.o., LTD4-induced bronchoconstriction.
[4] abbreviates: I.V., 1 mg/kg, compound 1 minute before LTD4 challenge.

Read-outs that look alike come from different tables or passages of the source.

For `COc1cc(C(=O)O)ccc1CC(=O)Nc1cccc(/C=C/c2nc(C3CCC3)cs2)c1` [Example 28b, (E)-4-[2-[3-[2-[4-(cyclobutyl)-2-thiazolyl]ethenyl]phenylamino]-2-oxoethyl]-3-methoxybenzoic acid], under setting [1], the ED50 worked out at 0.4 mg/kg.

Regarding `O=C(Cc1ccccc1C(=O)O)Nc1cccc(/C=C/c2csc(C3CCC3)n2)c1` [Example 20h, (E)-2-[2-[3-[2-(2-Cyclobutyl-4-thiazolyl)ethenyl]phenylamino]-2-oxoethyl]benzoic acid], the ED50 under setting [1] turned out to be 0.04 mg/kg. Besides, the inhibition in vivo at 1 mg/kg under setting [2] turned out to be 48 ± 6%.

On to `O=C(CCc1ccccc1C(=O)O)Nc1cccc(/C=C/c2nc(C3CCC3)cs2)c1` [Example 21b, (E)-2-[3-[3-[2-[4-(Cyclobutyl)-2-thiazolyl]ethenyl]phenylamino]-3-oxopropyl]benzoic acid], for which the ED50 runs as follows: under setting [1], 0.02 mg/kg; under setting [3], 8.2 mg/kg.

For the compound `CC(=O)Oc1ccc(CC(=O)Nc2cccc(/C=C/c3nc(C4CCC4)cs3)c2)c(C(=O)O)c1` [Example 31, (E)-5-Acetoxy-2-[2-[3-[2-[4-(cyclobutyl)-2-thiazolyl]ethenyl]phenylamino]-2-oxoethyl]benzoic Acid], the ED50 under setting [1] is 0.004 mg/kg and the ED50 under setting [3] came out at 0.3 mg/kg.

On to `O=C(Cc1ccc(Cl)cc1C(=O)O)Nc1cccc(/C=C/c2nc(C3CCC3)cs2)c1` [Example 24, (E)-5-chloro-2-[2-[3-[2-[4-(cyclobutyl)-2-thiazolyl]ethenyl]phenylamino]-2-oxoethyl]benzoic acid], for which the ED50 is, setting by setting: under setting [1], 0.01 mg/kg; under setting [3], 0.2 mg/kg.

On to `O=C(Cc1ccc([N+](=O)[O-])cc1C(=O)O)Nc1cccc(/C=C/c2nc(C3CCC3)cs2)c1` [Example 23, (E)-5-Nitro-2-[2-[3-[2-[4-(cyclobutyl)-2-thiazolyl]ethenyl]phenylamino]-2-oxoethyl]benzoic acid], for which, under setting [4], the “percent inhibition at 1 mg/kg I.V., LTD4-induced bronchoconstriction (ID50 not determined)” value (“percent inhibition … (ID50 not determined)” for short) is 36 ± 6%.

On to `O=C(Cc1ccccc1C(=O)O)Nc1cccc(/C=C/c2nc(C3CCCCC3)cs2)c1` [Example 10, (E)-2-[2-[3-[2-[4-(Cyclohexyl)-2-thiazolyl]ethenyl]phenylamino]-2-oxoethyl]benzoic acid], for which the ED50 runs as follows: under setting [1], 0.02 mg/kg; under setting [3], 0.43 mg/kg.

For the compound `O=C(Cc1ccccc1C(=O)O)Nc1cccc(/C=C/c2nc(C3CCCCCCC3)cs2)c1` [Example 12d, (E)-2-[2-[3-[2-[4-(Cyclooctyl)-2-thiazolyl]ethenyl]phenylamino]-2-oxoethyl]benzoic acid], the ED50 under setting [1] is 0.15 mg/kg. Also, the inhibition in vivo at 1 mg/kg under setting [2] worked out at 24 ± 4%.

Turning to `O=C(Cc1c(F)cccc1C(=O)O)Nc1cccc(/C=C/c2nc(C3CCC3)cs2)c1` [Example 25, (E)-3-fluoro-2-[2-[3-[2-[4-(cyclobutyl)-2-thiazolyl]ethenyl]phenylamino]-2-oxoethyl]benzoic acid], the ED50 under setting [1] amounted to 0.03 mg/kg. The inhibition in vivo at 1 mg/kg under setting [2] amounted to 36 ± 6%.

For the compound `CCOC(=O)c1csc(/C=C/c2cccc(NC(=O)Cc3ccccc3C(=O)O)c2)n1` [Example 18c, (E)-2-[2-[3-[2-[4-(Ethoxycarbonyl)-2-thiazolyl]ethenyl]phenylamino]-2-oxoethyl]benzoic acid], under setting [1], the ED50 came out at 0.2 mg/kg. Further, the inhibition in vivo at 1 mg/kg under setting [2] was 13 ± 3%.

Turning to `COc1ccc(CC(=O)Nc2cccc(/C=C/c3nc(C4CCC4)cs3)c2)c(C(=O)O)c1` [Example 26, (E)-5-Methoxy-2-[2-[3-[2-[4-(cyclobutyl)-2-thiazolyl]ethenyl]phenylamino]-2-oxoethyl]benzoic acid], the ED50 runs as follows: under setting [1], 0.03 mg/kg; under setting [3], 0.2 mg/kg.

In the case of `COC(=O)c1ccccc1CC(=O)Nc1cccc(/C=C/c2nc(C3CCC3)cs2)c1` [Example 4, (E)-2-[2-[3-[2-[4-(Cyclobutyl)-2-thiazolyl]ethenyl]phenylamino]-2-oxoethyl]benzoic Acid Methyl Ester], the ED50 under setting [1] is 0.3 mg/kg and the ED50 under setting [3] came to 0.3 mg/kg.

As for `O=C(Cc1ccc(C(=O)O)cc1)Nc1cccc(/C=C/c2nc(C3CCC3)cs2)c1` [Example 8b, (E)-4-[2-[3-[2-[4-(Cyclobutyl)-2-thiazolyl]ethenyl]phenylamino]-2-oxoethyl]benzoic acid], the “percent inhibition … (ID50 not determined)” value under setting [4] is 50 ± 6%.

Consider `CN(C)C(=O)c1ccccc1CC(=O)Nc1cccc(/C=C/c2nc(C3CCC3)cs2)c1` [Example 5, (E)-2-[2-[3-[2-[4-(Cyclobutyl)-2-thiazolyl]ethenyl]phenylamino]-2-oxoethyl]-N,N-dimethylbenzamide], for which the ED50 reads like this: under setting [1], 0.005 mg/kg; under setting [3], 0.6 mg/kg.

For `O=C(Cc1ccccc1C(=O)O)Nc1cccc(/C=C/c2nc(C3CCCC3)cs2)c1` [Example 9, (E)-2-[2-[3-[2-[4-(Cyclopentyl)-2-thiazolyl]ethenyl]phenylamino]-2-oxoethyl]benzoic acid], the ED50 by setting is: under setting [1], 0.005 mg/kg; under setting [3], 0.4 mg/kg.

Take `O=C(Cc1ccccc1C(=O)O)Nc1cccc(/C=C/c2nc(C(=O)O)cs2)c1` [Example 19]: the “percent inhibition at 1 mg/kg, previous test” value (1 mg/kg, previous test (footnote ** to the I.V. value)) came out at 0 ± 0%. For the same compound, the “percent inhibition … (ID50 not determined)” value under setting [4] worked out at 12 ± 4%.

As to `O=C(NCc1ccccc1C(=O)O)c1cccc(/C=C/c2nc(C3CCC3)cs2)c1` [Example 22c, (E)-2-[[[[3-[2-(4-Cyclobutyl-2-thiazolyl)ethenyl]phenyl]carbonyl]amino]methyl]benzoic acid], the ED50 was 0.04 mg/kg under setting [1] and 0.1 mg/kg under setting [3].

Consider `O=C(Cc1ccccc1CO)Nc1cccc(/C=C/c2nc(C3CCC3)cs2)c1` [Example 6, (E)-2-[2-[3-[2-[4-(Cyclobutyl)-2-thiazolyl]ethenyl]phenylamino]-2-oxoethyl]benzyl Alcohol], for which the ED50 was 0.1 mg/kg under setting [1] and 0.3 mg/kg under setting [3].

Consider `Cc1ccc(NC(=O)Cc2ccccc2C(=O)O)cc1/C=C/c1nc(C(C)C)cs1` [Example 16g, (E)-2-[2-[4-Methyl-3-[2-[4-(1-methylethyl)-2-thiazolyl]ethenyl]phenylamino]-2-oxoethyl]benzoic acid], for which, under setting [1], the ED50 is 0.2 mg/kg. For the same compound, the inhibition in vivo at 1 mg/kg under setting [2] was found to be 24 ± 8%.

Take `O=C(Cc1ccccc1C(=O)O)Nc1cccc(/C=C/c2nc(C3CCCCCC3)cs2)c1` [Example 11i, (E)-2-[2-[3-[2-[4-(Cycloheptyl)-2-thiazolyl]ethenyl]phenylamino]-2-oxoethyl]benzoic acid]: the ED50 under setting [1] worked out at 0.02 mg/kg. Further, the inhibition in vivo at 1 mg/kg under setting [2] was 42 ± 10%.

`O=C(Cc1cccc(C(=O)O)c1)Nc1cccc(/C=C/c2nc(C3CCC3)cs2)c1` [Example 7b, (E)-3-[2-[3-[2-[4-(Cyclobutyl)-2-thiazolyl]ethenyl]phenylamino]-2-oxoethyl]benzoic acid]: under setting [1], the ED50 was determined as 0.3 mg/kg.

For `O=C(Cc1ccc(F)cc1C(=O)O)Nc1cccc(/C=C/c2nc(C3CCC3)cs2)c1` [Example 27, (E)-5-fluoro-2-[2-[3-[2-[4-(cyclobutyl)-2-thiazolyl]ethenyl]phenylamino]-2-oxoethyl]benzoic acid], under setting [1], the ED50 turned out to be 0.2 mg/kg.
